Earlier results on three substances are cited in patent US8088597B2, “Blood pressure lowering peptides from glycomacropeptide” (DSM IP Assets B.V., priority 2005, dated 2012).

Data set [1] deals with ACE (Homo sapiens, UniProt P12821). The settings on record: reported in the literature.
The subject of data set [2] is spontaneously hypertensive rats. The note with it: tripeptides derived from lactic acid bacteria fermented bovine milk; Nakamura et al. 1995.

ACE, sequence (P12821 30-1306, species assumed): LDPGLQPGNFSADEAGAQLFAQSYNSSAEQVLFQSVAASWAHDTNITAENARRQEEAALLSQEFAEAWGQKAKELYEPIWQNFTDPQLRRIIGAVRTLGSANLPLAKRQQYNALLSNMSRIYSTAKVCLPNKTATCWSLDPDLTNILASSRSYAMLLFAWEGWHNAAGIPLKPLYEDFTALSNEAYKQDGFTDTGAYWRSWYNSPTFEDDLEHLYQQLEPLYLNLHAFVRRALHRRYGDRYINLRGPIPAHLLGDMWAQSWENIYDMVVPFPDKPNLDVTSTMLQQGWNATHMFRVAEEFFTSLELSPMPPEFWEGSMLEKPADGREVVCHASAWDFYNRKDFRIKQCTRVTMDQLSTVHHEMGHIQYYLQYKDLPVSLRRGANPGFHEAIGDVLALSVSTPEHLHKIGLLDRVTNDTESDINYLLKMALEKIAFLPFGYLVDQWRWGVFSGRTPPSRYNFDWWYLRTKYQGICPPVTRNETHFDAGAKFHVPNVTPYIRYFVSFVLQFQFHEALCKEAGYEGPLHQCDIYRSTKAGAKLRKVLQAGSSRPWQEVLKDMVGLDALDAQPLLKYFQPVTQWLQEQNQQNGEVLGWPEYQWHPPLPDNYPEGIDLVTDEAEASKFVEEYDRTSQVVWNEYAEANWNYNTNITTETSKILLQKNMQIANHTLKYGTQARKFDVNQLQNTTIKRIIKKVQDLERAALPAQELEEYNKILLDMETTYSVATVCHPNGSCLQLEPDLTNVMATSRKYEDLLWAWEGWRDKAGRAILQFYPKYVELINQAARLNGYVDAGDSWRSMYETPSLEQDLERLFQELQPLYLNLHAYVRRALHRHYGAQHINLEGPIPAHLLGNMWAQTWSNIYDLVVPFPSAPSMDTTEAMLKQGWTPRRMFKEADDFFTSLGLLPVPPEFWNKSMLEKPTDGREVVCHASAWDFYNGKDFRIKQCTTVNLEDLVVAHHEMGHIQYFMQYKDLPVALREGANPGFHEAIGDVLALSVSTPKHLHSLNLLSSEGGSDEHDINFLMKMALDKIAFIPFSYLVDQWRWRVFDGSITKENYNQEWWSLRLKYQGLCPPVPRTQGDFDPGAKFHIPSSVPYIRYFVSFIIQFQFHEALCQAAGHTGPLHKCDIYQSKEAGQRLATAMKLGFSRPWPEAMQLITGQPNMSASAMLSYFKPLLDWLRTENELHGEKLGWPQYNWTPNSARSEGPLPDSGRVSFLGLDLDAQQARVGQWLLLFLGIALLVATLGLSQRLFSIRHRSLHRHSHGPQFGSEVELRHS

Regarding Ile-Pro-Pro, the ACE inhibiting activity result in data set [1] was “Strong ACE inhibiting activities”. In addition, the antihypertensive effects result in data set [2] is reported as “confirmed”.

Take Leu-Pro-Pro: in data set [1], the ACE inhibiting activity entry was “Strong ACE inhibiting activities”.

On to Val-Pro-Pro, for which the ACE inhibiting activity entry in data set [1] is given as “Strong ACE inhibiting activities”. Further, the antihypertensive effects result in data set [2] is given as “confirmed”.
